# In US9676761B2, “Difluoroethyl-oxazole substituted bridged spiro[2.4]heptane derivatives as ALX receptor agonists” (ACTELION PHARMACEUTICALS LTD, priority 2013, dated 2017):
# What was measured:
# [1] = Plasma protein binding assay (Rapid Equilibrium Dialysis), human; format: in vitro ADME; settings: 1 μM, dialysis 4 h at 37° C., pH 7.4
# Protocol: Plasma Protein Binding Assay
# Compounds were added to human plasma adjusted at pH 7.4 with lactic acid or ammonium hydroxide (final concentration 1 μM) and dialyzed with RED (Rapid Equilibrium Dialysis) devices against Phosphate Buffered Saline (0.1M sodium Phosphate and 0.15 M sodium chloride) 0.1 M pH 7.4 for 4 h at 37° C. in an incubator containing 5% CO2. Following dialysis, an aliquot of plasma and buffer were diluted with an equal volume of the opposite matrix to nullify the matrix effect and a calibration was prepared in the mixed matrix. Aliquots of samples and calibrations (30 μl) were transferred in a 96 well plate containing 90 μl MeOH to precipitate the proteins. After vortexing for 20 min at 1400 rpm on an Eppendorf thermomixer, the plates were centrifuged at 3220 g for 20 min at 4° C. and the supernatants were analyzed with LC-MS/MS. Concentrations of analyte were used for the calculation of the fraction bound to plasma. Propranolol [(±)-1-isopropylamino-3-(1-naphthyloxy)-2-propanol], a reference compound, was run in parallel.
# [2] = target: T1, human ALX receptor (Homo sapiens, UniProt P25090); experiment: FLIPR assay (ALX receptor), intracellular calcium measurements in HEK293-hALXR-Gα16 cells; format: cell-based; settings: median of n replications, normalized to WKYMVm 10 nM, read-out: EC50 (agonistic activity with respect to the ALX receptor)
# T1 construct: expressed in transfected cells; host or cells: HEK293 (HEK293-hALXR-Gα16)
# T1 sequence (P25090 1-351): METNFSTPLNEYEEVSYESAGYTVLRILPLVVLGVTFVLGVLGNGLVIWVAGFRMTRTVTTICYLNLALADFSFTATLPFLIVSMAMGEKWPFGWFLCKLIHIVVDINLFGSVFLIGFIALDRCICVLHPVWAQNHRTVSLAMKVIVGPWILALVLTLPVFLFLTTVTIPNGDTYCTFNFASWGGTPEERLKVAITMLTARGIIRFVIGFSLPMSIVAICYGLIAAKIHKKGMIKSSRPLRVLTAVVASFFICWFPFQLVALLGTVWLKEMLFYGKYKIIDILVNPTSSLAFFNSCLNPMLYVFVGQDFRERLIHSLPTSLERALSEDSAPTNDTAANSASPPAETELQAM
# Protocol: FLIPR Assay (ALX Receptor)
# (§1) Intracellular Calcium Measurements:
# (§2) Cells expressing recombinant human ALX receptor and the G-protein Gα16 (HEK293-hALXR-Gα16) were grown to 80% confluency in Growing Medium (GM). Cells were detached from culture dishes with a cell dissociation buffer (Invitrogen, 13151-014), and collected by centrifugation at 1,000 rpm at rt for 5 min in Assay Buffer (AB) (equal parts of Hank's BSS (Gibco, 14065-049) and DMEM without Phenol Red (Gibco, 11880-028)). After 60 min incubation at 37° C. under 5% CO2 in AB supplemented with 1 μM Fluo-4 (AM) (Invitrogen, F14202) and 20 mM HEPES (Gibco, 15630-056), the cells were washed and resuspended in AB. They were then seeded onto 384-well FLIPR assay plates (Greiner, 781091) at 50,000 cells in 70 μl per well and sedimented by centrifugation at 1,000 rpm for 1 min. Stock solutions of test compounds were made up at a concentration of 10 mM in DMSO, and serially diluted in AB to concentrations required for activation dose response curves. WKYMVm (Phoenix Peptides) was used as a reference agonist. […] Changes in fluorescence were monitored before and after the addition of test compounds at lex=488 nm and lem=540 nm. […]
# [3] = Plasma stability assay (stability in serum), rat; format: in vitro ADME; settings: pH 7.4, 37° C., 1 μM compound; for remaining concentration at Tlast: Tlast 6 h
# Protocol: (§3) Rat or human serum adjusted at pH 7.4 with lactic acid or ammonium hydroxide, were equilibrated at 37° C. under orbital shaking in an incubator containing 5% CO2. The reaction was initiated by the addition of 1 μM of compounds (1 μl of 1 mM stock solution in DMSO in 999 μl of plasma). At 0.01 h, 0.25 h, 0.5 h, 1 h, 2 h, 4 h and 6 h aliquots (30 μl) were transferred in a 96 well plate containing 90 μl MeOH placed on ice to stop the reaction. After vortexing for 20 min at 1400 rpm on an Eppendorf thermomixer, the plates were centrifuged at 3220 g for 20 min at 4° C. and the supernatants were analyzed with LC-MS/MS. Calibration samples in serum containing 0.1% of dichlorvos (2,2-dichlorovinyl-dimethyl-phosphate) were prepared and analysed in parallel to the incubation samples to allow the quantification. Half lives (T1/2) in hours were then calculated. In addition the remaining concentration of the respective compound after time Tlast relative to the concentration at the beginning has been determined (table 3).
# [4] = Plasma stability assay (stability in serum), human; format: in vitro ADME; settings: pH 7.4, 37° C., 1 μM compound; for remaining concentration at Tlast: Tlast 6 h
# Protocol: as §3
# [5] = target: T2, human FPR1 receptor (Homo sapiens, UniProt P21462); experiment: FLIPR assay (FPR1 receptor), intracellular calcium measurements in HEK293-hFPR1-Gα16 cells; format: cell-based; settings: median of n replications, normalized to WKYMVm 10 nM, read-out: EC50 (agonistic activity with respect to the FPR1 receptor)
# T2 construct: expressed in transfected cells; host or cells: HEK293 (HEK293-hFPR1-Gα16)
# T2 sequence (P21462 1-350): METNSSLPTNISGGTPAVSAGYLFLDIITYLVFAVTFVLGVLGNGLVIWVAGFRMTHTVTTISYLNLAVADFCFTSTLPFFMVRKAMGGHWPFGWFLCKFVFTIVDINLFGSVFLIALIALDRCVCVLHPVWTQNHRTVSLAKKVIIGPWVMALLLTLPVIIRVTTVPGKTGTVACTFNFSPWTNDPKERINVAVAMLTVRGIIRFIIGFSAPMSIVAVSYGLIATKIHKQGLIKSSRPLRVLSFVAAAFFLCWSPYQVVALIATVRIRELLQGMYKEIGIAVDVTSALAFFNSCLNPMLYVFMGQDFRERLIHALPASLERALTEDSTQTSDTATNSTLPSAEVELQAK
# Protocol: FLIPR Assay (FPR1 Receptor)
# as §1
# as §2, with “FPR1” for “ALX”, “(HEK293-hFPR1-Gα16)” for “(HEK293-hALXR-Gα16)”
# [6] = Plasma protein binding assay (Rapid Equilibrium Dialysis), rat; format: in vitro ADME; settings: 1 μM, dialysis 4 h at 37° C., pH 7.4
substance,measurement,setting,value
"(1S,2R,3R,4R)—N^2—((4-(1,1-Difluoroethyl)oxazol-2-yl)methyl)-N^3-(trans-3-fluoropiperidin-4-yl)spiro[bicyclo[2.2.1]heptane-7,1′-cyclopropane]-2,3-dicarboxamide [Example 2]",Plasma protein binding,[1],63.8%
same,EC50,[2],3.6 nM
same,remaining concentration at Tlast,[3],>100%
same,T1/2,[3],>6 h
same,remaining concentration at Tlast,[4],>100%
same,T1/2,[4],>6 h
same,EC50,[5],> 7000 nM
same,Plasma protein binding,[6],47.7%
"(1S,2R,3R,4R)—N^2—((4-(1,1-Difluoroethyl)oxazol-2-yl)methyl)-N^3-(trans-3-fluoropiperidin-4-yl)spiro[bicyclo[2.2.1]heptane-7,1′-cyclopropane]-2,3-dicarboxamide [Example 1]",Plasma protein binding,[1],54.8%
same,EC50,[2],6.6 nM
same,remaining concentration at Tlast,[3],>100%
same,T1/2,[3],>6 h
same,remaining concentration at Tlast,[4],97%
same,T1/2,[4],>6 h
same,EC50,[5],> 6000 nM
same,Plasma protein binding,[6],50.7%
